Experimental data: patent US9642804B2, “Cationic lipids with various head groups for oligonucleotide delivery” (priority 2009, dated 2017)

What was measured:
[1] = Rat in vivo toxicity, serum ALT and AST; parameters: species or system Sprague-Dawley rat; details: ApoB siRNA RDV; for LFTs relative to PBS control dosed rats: serum 24 hours after dosing
Method: After LNP administration, rats are placed in cages with normal diet and water present. Six hours post dose, food is removed from the cages. Animal necropsy is performed 24 hours after LNP dosing. Rats are anesthetized under isoflurane for 5 minutes, then maintained under anesthesia by placing them in nose cones continuing the delivery of isoflurane until ex-sanguination is completed. Blood is collected from the vena cava using a 23 guage butterfly venipuncture set and aliquoted to serum separator vacutainers for serum chemistry analysis. Punches of the excised caudate liver lobe are taken and placed in RNA Later (Ambion) for mRNA analysis. Preserved liver tissue was homogenized and total RNA isolated using a Qiagen bead mill and the Qiagen miRNA-Easy RNA isolation kit following the manufacturer's instructions. Liver ApoB mRNA levels were determined by quantitative RT-PCR. Message was amplified from purified RNA utilizing a rat ApoB commercial probe set (Applied Biosystems Cat # RN01499054_ml). The PCR reaction was performed on an ABI 7500 instrument with a 96-well Fast Block. The ApoB mRNA level is normalized to the housekeeping PPIB (NM 011149) mRNA. PPIB mRNA levels were determined by RT-PCR using a commercial probe set (Applied Biosytems Cat. No. Mm00478295_ml). Results are expressed as a ratio of ApoB mRNA/PPIB mRNA. All mRNA data is expressed relative to the PBS control dose. Serum ALT and AST analysis were performed on the Siemens Advia 1800 Clinical Chemistry Analyzer utilizing the Siemens alanine aminotransferase (Cat# 03039631) and aspartate aminotransferase (Cat# 03039631) reagents.

[2] = Rhesus monkey in vivo toxicity, serum ALT and AST; parameters: species or system Macaca mulatta (rhesus) monkey; details: ApoB siRNA RDV; 3.6 mg/kilogram siRNA intravenous
Method: (§1) LNPs utilizing Compounds 9 or 12 in the nominal compositions described above, were evaluated for in vivo efficacy and increases in alanine amino transferases (ALT) and aspartate amino transferase (AST) in male or female Macaca mulatta (rhesus) monkeys. The siRNA targets the mRNA transcript for the ApoB gene (Accession # XM 001097404). […] The RDVs (containing siRNA) in PBS vehicle were administered by intravenous injection in the saphenous vein at an injection rate of 20 mL/minute to a dose level of 3.6 mg/kilogram siRNA. The injection volumes were from 1.9 to 2.1 mL/kilogram and monkeys ranged in weight from 2.5 to 4.5 kilograms. Each RDV or PBS control was administered to two monkeys. At multiple days post dose, 1 mL blood samples were drawn from the femoral artery for serum chemistry analysis. Monkeys were fasted overnight prior to blood draws. Serum ALT and AST analysis were performed on the Siemens Advia 1800 Clinical Chemistry Analyzer utilizing the Siemens alanine aminotransferase (Cat# 03039631) and aspartate aminotransferase (Cat# 03039631) reagents. As a measure of efficacy, LDL-C was monitored as a downstream surrogate marker of ApoB mRNA reduction. At eight days post systemic administration, of RDVs containing Compounds 9 or 12, reduced serum levels of LDL-C to less than 50% of pre-dose levels (FIG. 4). The RDV containing Compound 9 reduced LDL-C levels to a greater extent than the RDV containing Compound 12 (ave.: −63% vs. −53%). ALT and AST were elevated relative to predose values in monkeys treated with both Compounds 9 and 12 RDVs (FIG. 4).

[3] = system: mRNA transcript for the firefly (Photinus pyralis) luciferase gene; assay: Mouse in vivo efficacy, luciferase mouse model (liver bioluminescence, IVIS); details: for Average % Inhibition of Bioluminescence: LNP (cationic lipid/cholesterol/PEG-DMG 60/38/2) with Luc siRNA, tail vein, 48 hours post dose, relative to pre-dose
Method: (§2) LNPs utilizing Compound 9 or 12, in the nominal compositions described immediately above, were evaluated for in vivo efficacy and induction of inflammatory cytokines in a luciferase mouse model. The siRNA targets the mRNA transcript for the firefly (Photinus pyralis) luciferase gene (Accession # M15077). […] The in vivo luciferase model employs a transgenic mouse in which the firefly luciferase coding sequence is present in all cells. ROSA26-LoxP-Stop-LoxP-Luc (LSL-Luc) transgenic mice licensed from the Dana Farber Cancer Institute are induced to express the Luciferase gene by first removing the LSL sequence with a recombinant Ad-Cre virus (Vector Biolabs). Due to the organo-tropic nature of the virus, expression is limited to the liver when delivered via tail vein injection. Luciferase expression levels in liver are quantitated by measuring light output, using an IVIS imager (Xenogen) following administration of the luciferin substrate (Caliper Life Sciences). Pre-dose luminescence levels are measured prior to administration of the RDVs. Luciferin in PBS (15 mg/mL) is intraperitoneally (IP) injected in a volume of 150 uL. After a four minute incubation period mice are anesthetized with isoflurane and placed in the IVIS. imager. The RDVs (containing siRNA) in PBS vehicle were tail vein injected in a volume of 0.2 mL. Final dose levels ranged from 0.3 to 3 mg/kg siRNA. PBS vehicle alone was dosed as a control. Three hours post dose, mice were bled retro-orbitally to obtain plasma for cytokine analysis. Mice were imaged 48 hours post dose using the method described above. Changes in luciferin light output directly correlate with luciferase mRNA levels and represent an indirect measure of luciferase siRNA activity. In vivo efficacy results are expressed as % inhibition of luminescence relative to pre-dose luminescence levels. Plasma cytokine levels were determined using the SearchLight multiplexed cytokine chemoluminescent array (Pierce/Thermo). Systemic administration of the luciferase siRNA RDVs decreased luciferase expression in a dose dependant manner. […] Compound 12, (Table 1 and FIG. 2). […] However, average cytokine induction was lower in the animals dosed with the Compound 9 RDV, relative to the Compound 12 RDV.(FIG. 1).

cytokines IL-6 and mKC = assay: Mouse in vivo cytokine induction 3 hours post injection (plasma, SearchLight array); details: Luc siRNA RDV; plasma three hours post dose
Method: as §2

[4] = system: mRNA transcript for the ApoB gene; assay: Rhesus monkey in vivo efficacy, serum LDL-C as surrogate marker of ApoB mRNA reduction; parameters: species or system Macaca mulatta (rhesus) monkey; details: ApoB siRNA RDV; 3.6 mg/kilogram siRNA intravenous; average of two monkeys
Method: as §1, with “The RDV containing Compound 9 reduced LDL-C levels to a greater extent than the RDV containing Compound 12 (ave.: −63% vs. −53%). ALT and AST were elevated relative to predose values in monkeys treated with both Compounds 9 and 12 RDVs (FIG. 4).” left out

[5] = rat serum 24 hours after dosing

CCCCCCCC/C=C\CCCCCCCCOC[C@@H](COCCCCCCO[C@H]1CC[C@@]2(C)C(=CC[C@@H]3C2CC[C@@]2(C)C3CC[C@@H]2[C@H](C)CCCC(C)C)C1)N(C)C (stereo partly shown) [Compound 9]
ALT levels, comparison of the RDVs [1, 5]: increased to a greater extent
LFTs relative to PBS control dosed rats [1]: An increase in LFTs
ALT relative to predose values [2]: elevated
AST relative to predose values [2]: elevated
Elevation of ALT, comparison of the RDVs [2]: approximately equivalent
Average % Inhibition of Bioluminescence ([3]; 0.1 mg Kg^−1): 80%
Average % Inhibition of Bioluminescence ([3]; 0.3 mg Kg^−1): 89%
Average % Inhibition of Bioluminescence ([3]; 1.0 mg Kg^−1): 91%
Efficacy in decreasing luciferase expression, comparison of the RDVs ([3]; Luc siRNA RDV, Compound 9 RDV versus Compound 12 RDV): Greater efficacy
Average cytokine induction, Compound 9 RDV relative to Compound 12 RDV (cytokines IL-6 and mKC): lower
Mouse plasma level of IL-6 relative to the PBS control (cytokines IL-6 and mKC): significantly increased
Mouse plasma level of mKC relative to the PBS control (cytokines IL-6 and mKC): significantly increased
Reduction of LDL-C levels (ave.) [4]: −63%

CCCCC/C=C\C/C=C\CCCCCCCCOCC(CN(C)C)OCCCCCCCCO[C@H]1CC[C@@]2(C)C(=CC[C@H]3[C@@H]4CC[C@H]([C@H](C)CCCC(C)C)[C@@]4(C)CC[C@@H]32)C1 (stereo partly shown) [Compound 12, S-Octyl CLinDMA, reference compound]
AST levels, comparison of the RDVs [1, 5]: increased more strongly
LFTs relative to PBS control dosed rats [1]: An increase in LFTs
ALT relative to predose values [2]: elevated
AST relative to predose values [2]: elevated
Elevation of ALT, comparison of the RDVs [2]: approximately equivalent
Elevation of AST, comparison of the RDVs [2]: elevated to a markedly higher level
Average % Inhibition of Bioluminescence ([3]; 0.1 mg Kg^−1): 54%
Average % Inhibition of Bioluminescence ([3]; 0.3 mg Kg^−1): 74%
Average % Inhibition of Bioluminescence ([3]; 1.0 mg Kg^−1): 88%
Mouse plasma level of IL-6 relative to the PBS control (cytokines IL-6 and mKC): significantly increased
Mouse plasma level of mKC relative to the PBS control (cytokines IL-6 and mKC): significantly increased
Reduction of LDL-C levels (ave.) [4]: −53%
